# Measured values reported in PMC6214915, “Design of a novel cell-permeable chimeric peptide to promote wound healing” (Scientific Reports, 2018).
# Peptide text beside a SMILES is read from it.
# Key:
# [1] = Circular dichroism spectroscopy (secondary structure); assay type: physicochemical; conditions: for Percentage of the α-helix content: phosphate buffer / Percentage of the α-helix content: 50% TFE: CD, 20 µM peptide, calculated from ellipticity at 222 nm; for Percentage of the α-helix content: phosphate buffer: 10 mM phosphate buffer pH 7.0, 20 °C; for Percentage of the α-helix content: 50% TFE: 10 mM phosphate buffer pH 7.0 with 50% TFE, 20 °C; for R-value: ratio between molar ellipticity values at 222 and 208 nm, in the presence of 50% TFE, R = 1 perfect α-helix
# Method: Figure 1 Structural characteristics of investigated peptides. CD spectra were acquired at a peptide concentration of 20 µM in 10 mM phosphate buffer, pH 7.0 (A) and in the additional presence of 50% TFE (B). The percentage of the α-helix content was calculated from the ellipticity value at 222 nm using the following formula: (% α-helix = ((([Θ222]−3000)⁄(−36000−3000)) × 100)[47] (C). R-values represent the ratio between the molar ellipticity values at 222 and 208 nm[20] and R = 1 defined as hallmark for a perfectly built α-helix[48]. Helical wheel projections of Tylotoin-sC18* and sC18*-Tylotoin predicted by HeliQuest (D). TEXT PRINTED IN THE PICTURE: (C) Tylotoin-sC18: Percentage of the α-helix content: phosphate buffer: 12.1; Percentage of the α-helix content: 50% TFE: 46.3; R-value: 0.85 | (C) sC18-Tylotoin: Percentage of the α-helix content: phosphate buffer: 13.1; Percentage of the α-helix content: 50% TFE: 43.5; R-value: 0.87 | (C) Tylotoin-sC18*: Percentage of the α-helix content: phosphate buffer: 10.7; Percentage of the α-helix content: 50% TFE: 46.3; R-value: 0.77 | (C) sC18*-Tylotoin: Percentage of the α-helix content: phosphate buffer: 6.9; Percentage of the α-helix content: 50% TFE: 40.5; R-value: 0.74 | (C) Tylotoin: Percentage of the α-helix content: phosphate buffer: 15.6; Percentage of the α-helix content: 50% TFE: 25.0; R-value: 0.51
# CD spectra were recorded from 180 nm to 270 nm in 0.5 nm intervals at 20 °C using a JASCO J-715 spectropolarimeter in an N2 atmosphere. The CD spectra were measured using a 1 mm quartz cuvette and the instrument parameters were set as follows: sensitivity, 100 mdeg; scan mode, continuous; scan speed, 50 nm/min; response time, 2 sec and bandwidth, 1.0 nm. Peptides were dissolved in 10 mM potassium phosphate buffer (pH 7.0) containing either 0 or 50% (v/v) trifluoroethanol (TFE) to a final peptide concentration of 20 µM.
# [2] = system: human keratinocytes HaCaT; test: MTT cell viability assay on HaCaT keratinocytes; assay type: cell-based; conditions: 24 h, 37 °C; for Cytotoxic effect on keratinocytes viability: 10 to 100 µM, serum-free medium, triplicate, n = 3; for Effect on HaCaT cells at higher concentrations: >50 µM
# Method: Figure 2 Cytotoxic profile of peptides against human keratinocytes HaCaT. Cells were incubated with indicated concentrations of peptides at 37 °C for 24 h. Cell viability of HaCaT cells was determined by MTT assay relative to untreated cells (set to 100%). As positive control, cells were treated with 70% EtOH for 10 min. Experiments were conducted in triplicate with n = 3. Error bars represent standard deviation. (**p < 0.01; ***p < 0.001).
# The toxic effect of the investigated peptides on HaCaT cells was evaluated using the [3(4,5-dimethylthiazol-2yl)2,5-diphenyltetrazolium bromide] (MTT) colorimetric method. MTT is a tetrazolium salt which is reduced to a purple colored formazan product by mitochondrial reductases, present only in metabolically active cells. Keratinocytes were seeded onto a 96-well microtiter plate at a density of 8 × 10^4 cells per well in DMEMg supplemented with 2 mM L-Gln and 2% FBS. After reaching 70–80% confluency, the medium was removed and cells were incubated at 37 °C for 24 h with peptides at different concentrations ranging from 10 to 100 µM (in serum-free medium). After 24 h of incubation, 10 µl of MTT (in PBS, 0.45 mg/ml final) were added to each well. After 4 h incubation, the supernatants were removed and the formazan crystals were dissolved by adding 100 μl of dimethyl sulfoxide (DMSO). For the positive control, cells were treated with 70% EtOH for 10 min. The absorption was measured at 570 nm and at a reference wavelength of 630 nm using Tecan infinite M200 plate reader.
# [3] = cited from earlier work
# Text: Therefore, it was particularly interesting whether the combination of both, Tylotoin ...
# [4] = system: HaCaT cells; test: Cellular uptake of CF-labeled peptides into HaCaT cells (flow cytometry and confocal microscopy); assay type: cell-based, human; conditions: 10 µM CF-labeled peptides, 30 min, 37 °C, confocal microscopy
# Method: Cells were seeded in a µ-slide 8-well (Ibidi) plate (HaCaT 90,000; HeLa 45,000) and grown to 70–80% confluency. Then, the cells were incubated with CF-labeled peptides in serum-free medium for the requested time at either 4 °C or 37 °C as indicated. The nuclei were stained for 10 min with 0.6 µl Hoechst 33342 nuclear dye (bisbenzimide H33342, 1 mg/ml in H2O, sterile filtered) prior to the end of peptide incubation. Finally, the solutions were removed and cells were treated for 30 s with trypan blue (150 µM in 0.1 M acetate buffer, pH 4.15) for quenching external fluorescence. After washing twice with PBS, 300 µl of FBS-containing growth medium were added to each well. Images were taken by using a Nikon Eclipse Ti confocal laser scanning microscope equipped with a 60x oil-immersion objective (N.A. 1.4, Plan APO VC, Nikon). Images were recorded with Nikon EZ-C1 software and adjusted equally with ImageJ software.
# For treatment with endocytosis inhibitor, 80 µM of dynasore (in serum-free medium, Sigma-Aldrich) was added to the cells. After 1 h of incubation at 37 °C, CF-labeled peptide solution (in serum-free medium, 10 µM final) was added and incubated for further 30 min. Afterwards, the cells were handled as described above.
# Cells were seeded in triplicate in a 24-well plate (HaCaT 370,000; HeLa 170,000) and grown to 70–80% confluency under normal growth conditions. […]
# [5] = system: Micrococcus luteus; assay type: cell-based, Micrococcus luteus (DSM 20030); conditions: 6 h
# Method: HaCaT (immortalized human keratinocytes) and HeLa (human cervix carcinoma) cells were cultured in sterile 10 cm petri dishes at 37 °C in a humidified atmosphere of 5% CO2. HaCaT cells were maintained in DMEM containing 4,500 mg/l glucose (DMEMg), 2 mM L-Gln and 10% FBS (fetal bovine serum). HeLa cells were grown in RPMI 1640 supplemented with 4 mM L-Gln and 10% FBS. Bacteria used were Micrococcus luteus (DSM 20030) and Salmonella typhimurium (TA 100). Mueller Hinton (MH) broth agar plates were used for maintenance und MH broth medium was used to carry out antimicrobial activity studies.
# Antimicrobial activity of peptide conjugates against gram-positive and gram-negative bacteria was conducted using the p-iodonitrotetrazolium-chloride (INT) violet assay as previously described. INT is a tetrazolium-based reagent which is converted to a pink formazan dye in the presence of metabolically active bacteria.
# In brief, M. luteus and S. typhimurium were cultured in MH broth overnight at 37 °C while mild shaking (180 rpm). Overnight-cultured bacteria were added into fresh medium, grown to an optical density of 0.7 at 600 nm and 10 µl bacterial solution were added in triplicate to wells of a 96-well plate (BD Falcon, USA). […] The viability of bacteria relative to untreated bacteria was determined by measuring the absorption at 540 nm on a Tecan infinite M200 plate reader.
# [6] = system: Salmonella typhimurium; conditions: 6 h
# Method: Antimicrobial activity of peptide conjugates against gram-positive and gram-negative bacteria was conducted using the p-iodonitrotetrazolium-chloride (INT) violet assay as previously described[33].
# In brief, M. luteus and S. typhimurium were cultured in MH broth overnight at 37 °C while mild shaking (180 rpm). Overnight-cultured bacteria were added into fresh medium, grown to an optical density of 0.7 at 600 nm and 10 µl bacterial solution were added in triplicate to wells of a 96-well plate (BD Falcon, USA). The peptides used at various concentrations and 180 µl of MH medium were added to each corresponding well and incubated for 6 h at 37 °C. 10 µM chloramphenicol served as positive control and H20 was used as negative control. After incubation time, 10 μl of the freshly prepared INT solution (1 mg/ml in DMSO) were added to each well and incubated for further 30 min at 37 °C. The viability of bacteria relative to untreated bacteria was determined by measuring the absorption at 540 nm on a Tecan infinite M200 plate reader.
# [7] = cited from earlier work; remark: listed apart in the source
# Text: So far, very few studies have been conducted for the use of CPPs in the application field of human skin wound healing[12]–[14]. Thus, to our knowledge, we report for the first time on the fusion of a well-characterized cell penetrating peptide, namely sC18, to a wound healing promoting peptide sequence Tylotoin. This latter short peptide was recently identified and isolated from the skin of the salamander Tylototriton verrucosus. […] More precisely, Tylotoin ...
# [8] = system: HeLa cells; test: Resazurin-based cell viability assay on HeLa cells; set-up: species or system human; conditions: 24 h, serum-free RPMI, triplicate, n = 3
# Method: Figure 9 The efficacy of Tylotoin-sC18* towards cancer cells. Microscopic image of HeLa cells treated for 30 min with CF-labeled Tylotoin-sC18* (10 µM, green) at 37 °C (A). Quantification of the cellular uptake of 10 µM CF-labeled peptides for 30 min at 37 °C by flow cytometry (B). Cell viability of HeLa cells after treatment for 24 h with Tylotoin-sC18*, sC18* and Tylotoin, respectively (C). Cells treated with 70% ethanol served as positive control. Data are normalized to untreated cells (100% cell viability). Experiments were performed in triplicate with n = 3. Error bars represent standard deviation. (*p < 0.05).
# For a resazurin-based cell viability assay, HeLa cells were seeded onto a 96-well plate, grown to 70–80% confluency and incubated with various concentrations of peptides in serum-free RPMI growth medium for 24 h under standard growth conditions. For the positive control, cells were treated with 70% EtOH for 10 min. After washing with serum-free medium, resazurin solution (10% in serum-free media, v/v) was incubated with the cells for 1 h at 37 °C. Subsequently, cell viability was determined relative to untreated cells by measurement of the resorufin product at 595 nm (λex = 550 nm) on a Tecan infinite M200 plate reader.
Molecule,Percentage of the α-helix content: phosphate buffer [1],Percentage of the α-helix content: 50% TFE [1],R-value [1],Cytotoxic effect on keratinocytes viability [2],Antimicrobial activity [3],Effect on HaCaT cells at higher concentrations [2],also measured
"GLRKRLRKFRNKKCVRQNNKRVCK-NH2 [sC18*-Tylotoin, chimeric peptide, CPP sC18* fused N-terminally to Tylotoin]",6.9%,40.5%,0.74,slight decrease in cell viability,,,Difference in relative cell viability between sC18* and sC18*-Tylotoin [2]: about 40%
"GLRKRLRKFRNKIKEK-NH2 [sC18, cell penetrating peptide recently developed in the authors' group; control peptide]",,,,,moderate antimicrobial activities,negatively affect the cells,Intracellular distribution in keratinocytes [4]: some nuclear uptake was visible
CC(C)C[C@H](NC(=O)CNC(=O)[C@H](CCCCN)NC(=O)[C@H](CS)NC(=O)[C@@H](NC(=O)[C@H](CCCNC(=N)N)NC(=O)[C@H](CCCCN)NC(=O)[C@H](CC(N)=O)NC(=O)[C@H](CC(N)=O)NC(=O)[C@H](CCC(N)=O)NC(=O)[C@H](CCCNC(=N)N)NC(=O)[C@@H](NC(=O)[C@H](CS)NC(=O)[C@@H](N)CCCCN)C(C)C)C(C)C)C(=O)N[C@@H](CCCNC(=N)N)C(=O)N[C@@H](CCCCN)C(=O)N[C@@H](CCCNC(=N)N)C(=O)N[C@@H](CC(C)C)C(=O)N[C@@H](CCCNC(=N)N)C(=O)N[C@@H](CCCCN)C(=O)N[C@@H](Cc1ccccc1)C(=O)N[C@@H](CCCNC(=N)N)C(=O)N[C@@H](CC(N)=O)C(=O)N[C@@H](CCCCN)C(N)=O [Tylotoin-sC18*] (H-KCVRQNNKRVCKGLRKRLRKFRNK-NH2; N-terminus assumed),,,,,,,MIC value [5]: 13.47 µM; MIC value ([6]; murium): ~ 12.64 µM
"KCVRQNNKRVCKGLRKRLRKFRNKIKEK-NH2 [Tylotoin-sC18, chimeric peptide, CPP sC18 fused to the C-terminus of Tylotoin]",12.1%,46.3%,0.85,no cytotoxic effect at all,,,
"KCVRQNNKRVCK-NH2 [Tylotoin, wound healing promoting peptide from skin of the salamander Tylototriton verrucosus; made as C-terminal amide without disulfide bridge, reference compound]",15.6%,25.0%,0.51,no cytotoxic effect at all,did not show any antimicrobial activity,,"Antimicrobial activity against M. luteus ([5]; INT assay, 37 °C): no antimicrobial activity; Antimicrobial activity against S. typhimurium ([6]; INT assay, 37 °C): no antimicrobial activities; Proliferation of HaCaT cells [2]: enhance the proliferation; Wound healing in a murine model [7]: promote wound healing similar to hEGF; Cell viability of HeLa cells [8]: remained unharmed"
"GLRKRLRKFRNKIKEKKCVRQNNKRVCK-NH2 [sC18-Tylotoin, chimeric peptide, CPP sC18 fused N-terminally to Tylotoin]",13.1%,43.5%,0.87,,,negatively affect the cells,
